The target of assay [1] is AR transcription complex on the promoters of PSA and KLK2 in LNCaP cells (Homo sapiens, UniProt P10275, T878A).
The test system of assay [2] is LNCaP-AR cells. Kind of assay: In vitro growth of LNCaP-AR cells (low androgen / bicalutamide).
In assay [3] the test system is LNCaP cells infected with the empty vector. Kind of assay: In vitro growth of LNCaP vector cells in low androgen. As to conditions: steroid-depleted. The assay is classed as cell-based, human.
Assay [4] has as its system prostate-specific antigen (PSA) produced by LNCaP cells. Kind of assay: PSA produced by LNCaP cells. The format is cell-based, human.
A further assay has as its system AR LBD. The settings on record: cited from earlier work.
Assay [5] concerns LNCaP-AR cells. Kind of assay: Microarray of induced genes in LNCaP-AR cells. The format is cell-based, human.
Assay [6] deals with PSA mRNA and protein expression in parental LAPC4 cells. Kind of assay: PSA expression in parental LAPC4 cells. The settings on record: androgen-starved.
The subject of assay [7] is LNCaP cells infected with the empty-vector control. Kind of assay: Microarray of induced genes in LNCaP control cells. The assay is classed as cell-based, human. The settings on record: 10 μM.
In assay [8] the test system is PSA expression in LAPC4 cells expressing increased levels of AR. Kind of assay: PSA expression in LAPC4 cells with increased AR. As to conditions: androgen-starved.

Data on 4 compounds can be found in patent publication US7718684B2, “Methods and materials for assessing prostate cancer therapies and compounds” (The Regents of the University of California, priority 2004, dated 2010).

Sequence of AR transcription complex on the promoters of PSA and KLK2 in LNCaP cells (P10275 whole entry T878A, one chain of several): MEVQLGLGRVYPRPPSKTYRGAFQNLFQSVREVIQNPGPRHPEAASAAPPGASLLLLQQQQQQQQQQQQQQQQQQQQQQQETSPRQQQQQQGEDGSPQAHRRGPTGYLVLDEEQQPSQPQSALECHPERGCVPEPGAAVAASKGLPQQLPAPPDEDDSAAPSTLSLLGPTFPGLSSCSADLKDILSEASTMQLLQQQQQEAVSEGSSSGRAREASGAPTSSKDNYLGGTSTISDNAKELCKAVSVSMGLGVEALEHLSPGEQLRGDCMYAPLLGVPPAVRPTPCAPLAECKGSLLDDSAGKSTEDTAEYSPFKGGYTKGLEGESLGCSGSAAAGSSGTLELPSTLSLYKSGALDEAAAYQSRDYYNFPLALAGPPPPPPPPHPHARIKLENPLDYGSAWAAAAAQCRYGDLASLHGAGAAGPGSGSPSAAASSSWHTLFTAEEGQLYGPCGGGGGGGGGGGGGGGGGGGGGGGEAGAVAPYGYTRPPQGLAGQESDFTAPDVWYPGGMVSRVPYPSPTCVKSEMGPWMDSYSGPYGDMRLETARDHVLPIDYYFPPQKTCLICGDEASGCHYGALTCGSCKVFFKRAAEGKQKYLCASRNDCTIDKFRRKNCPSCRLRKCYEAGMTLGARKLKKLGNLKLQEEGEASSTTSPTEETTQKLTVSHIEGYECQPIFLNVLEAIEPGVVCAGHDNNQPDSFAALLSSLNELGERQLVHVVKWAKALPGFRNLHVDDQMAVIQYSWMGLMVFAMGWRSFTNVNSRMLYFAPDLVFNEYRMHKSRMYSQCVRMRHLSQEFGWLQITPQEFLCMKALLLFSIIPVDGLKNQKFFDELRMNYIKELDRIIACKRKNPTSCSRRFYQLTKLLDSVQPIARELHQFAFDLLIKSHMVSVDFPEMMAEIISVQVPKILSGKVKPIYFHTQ

Turning to `C[C@]1(O)CC[C@H]2[C@@H]3CCC4=CC(=O)CCC4=C3C=C[C@@]21C` [Compound R1881, R1881], the “recruitment of AR and polymerase II to promoters” value in assay [1] was “AR and polymerase II were recruited to both promoters regardless of AR level”. For the same compound, the “lower concentration supporting growth versus vector cells” value in the assay with LNCaP-AR cells [2] (charcoal-stripped serum, relative to vector cells) is given as “at least 80%”. In addition, in [3], the “concentration needed for growth in charcoal-stripped serum” value amounted to 100 pM.

Consider `CC1(C)C(=O)N(c2ccc(C#N)c(C(F)(F)F)c2)C(=S)N1c1ccc(N=[N+]=[N-])cc1` [Compound 5], for which, in assay [4] (LNCaP cells, PSA), the antagonist character entry is given as “full antagonists”. The “IC50 for PSA expression compared with bicalutamide” value in assay [4] (LNCaP cells, relative to bicalutamide) is “ten-fold lower”. In addition, in assay [4] (initial screening and biological testing), the “agonist and antagonist effects” value is listed as “best antagonist effects without any strong agonist effects”.

As for `CC1(C)C(=O)N(c2ccc(C#N)c(C(F)(F)F)c2)C(=S)N1CCCCO` [RU59063], the “binding to AR LBD compared with drugs such as bicalutamide” value in the assay with AR LBD is reported as “more potent binders of the AR LBD”.

Consider `CC(O)(CS(=O)(=O)c1ccc(F)cc1)C(=O)Nc1ccc(C#N)c(C(F)(F)F)c1` (stereo not shown) [bicalutamide], for which the probe sets induced in the assay on LNCaP-AR cells [5] (10 μM, 2-fold increase, P<0.05, 500 minimum expression) is recorded as 48 probe sets; in [7] it was “no elements were significantly upregulated”. Moreover, in the assay on LNCaP-AR cells [5] (of >600 androgen-regulated probe sets), the “subset of total androgen-regulated genes induced” value was less than 10%. For the same compound, the “effect on PSA mRNA and protein expression” value in assay [6] is “typical antagonist activity”. Further, the “effect on PSA expression” value in assay [8] was “functioned as an agonist”. The “growth in the presence of the antiandrogen” value with LNCaP-AR cells [2] (LNCaP-AR cells) was “resistant”.
